Measured values reported in ChEMBL document CHEMBL4482311, “Modulators of Prostate-Specific G-Protein Receptor (PSGR/OR51E2) and Methods of Using Same” (2018).
Calls of active or inactive are those of the source.

Columns and labels:
[1] = test system: LNCaP; assay: Growth inhibition of human LNCAP cells incubated for 7 days by CellTiter-Glo assay; assay type: functional, cell-based
[2] = target: T1, Olfactory receptor 51E2 (Homo sapiens) (UniProt Q9H255); assay: Agonist activity at PSGR/OR51E2 in human LNCaP cells assessed as induction of change in intracellular metabolites level by measuring threitol/erythritol level at 1 mM incubated for 72 hrs by GC/MS analysis; assay type: cell-based
T1 sequence (whole entry): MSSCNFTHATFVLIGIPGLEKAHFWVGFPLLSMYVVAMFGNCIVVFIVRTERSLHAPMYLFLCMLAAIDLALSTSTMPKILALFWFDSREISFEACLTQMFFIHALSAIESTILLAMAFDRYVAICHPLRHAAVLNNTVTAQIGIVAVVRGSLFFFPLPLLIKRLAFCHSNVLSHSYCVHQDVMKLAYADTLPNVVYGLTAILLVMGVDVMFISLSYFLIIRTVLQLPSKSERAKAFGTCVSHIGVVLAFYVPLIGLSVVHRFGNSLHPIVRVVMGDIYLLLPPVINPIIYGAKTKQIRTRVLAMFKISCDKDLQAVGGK

[3] = target: T1, Olfactory receptor 51E2 (Homo sapiens); assay: Agonist activity at PSGR/OR51E2 in human LNCaP cells assessed as induction of change in intracellular metabolites level by measuring threonine level at 1 mM incubated for 72 hrs by GC/MS analysis; assay type: cell-based
[4] = target: T1, Olfactory receptor 51E2 (Homo sapiens); assay: Agonist activity at PSGR/OR51E2 in human LNCaP cells assessed as induction of change in intracellular metabolites level by measuring lactose level at 1 mM incubated for 72 hrs by GC/MS analysis; assay type: cell-based
[5] = target: T1, Olfactory receptor 51E2 (Homo sapiens); assay: Agonist activity at PSGR/OR51E2 in human LNCaP cells assessed as induction of change in extracellular metabolites level by measuring glutamine level at 1 mM incubated for 72 hrs by GC/MS analysis; assay type: cell-based
[6] = target: T1, Olfactory receptor 51E2 (Homo sapiens); assay: Agonist activity at PSGR/OR51E2 in human LNCaP cells assessed as induction of change in intracellular metabolites level by measuring glycine level at 1 mM incubated for 72 hrs by GC/MS analysis; assay type: cell-based
[7] = target: T1, Olfactory receptor 51E2 (Homo sapiens); assay: Agonist activity at PSGR/OR51E2 in human LNCaP cells assessed as induction of change in extracellular metabolites level by measuring spermidine level at 1 mM incubated for 72 hrs by GC/MS analysis; assay type: cell-based
[8] = target: T1, Olfactory receptor 51E2 (Homo sapiens); assay: Agonist activity at PSGR/OR51E2 in human LNCaP cells assessed as induction of change in intracellular metabolites level by measuring spermidine level at 1 mM incubated for 72 hrs by GC/MS analysis; assay type: cell-based
[9] = target: T1, Olfactory receptor 51E2 (Homo sapiens); assay: Agonist activity at PSGR/OR51E2 in human LNCaP cells assessed as induction of change in extracellular metabolites level by measuring threonine level at 1 mM incubated for 72 hrs by GC/MS analysis; assay type: cell-based
[10] = target: T1, Olfactory receptor 51E2 (Homo sapiens); assay: Agonist activity at PSGR/OR51E2 in human LNCaP cells assessed as induction of change in extracellular metabolites level by measuring glutamic acid level at 1 mM incubated for 72 hrs by GC/MS analysis; assay type: cell-based
[11] = target: T1, Olfactory receptor 51E2 (Homo sapiens); assay: Agonist activity at PSGR/OR51E2 in human LNCaP cells assessed as induction of change in intracellular metabolites level by measuring guanine level at 1 mM incubated for 72 hrs by GC/MS analysis; assay type: cell-based
[12] = target: T1, Olfactory receptor 51E2 (Homo sapiens); assay: Agonist activity at PSGR/OR51E2 in human LNCaP cells assessed as induction of change in extracellular metabolites level by measuring serine level at 1 mM incubated for 72 hrs by GC/MS analysis; assay type: cell-based
[13] = target: T1, Olfactory receptor 51E2 (Homo sapiens); assay: Agonist activity at PSGR/OR51E2 in human LNCaP cells assessed as induction of change in intracellular metabolites level by measuring serine level at 1 mM incubated for 72 hrs by GC/MS analysis; assay type: cell-based
[14] = target: T1, Olfactory receptor 51E2 (Homo sapiens); assay: Agonist activity at PSGR/OR51E2 in human LNCaP cells assessed as induction of change in intracellular metabolites level by measuring lactic acid level at 1 mM incubated for 72 hrs by GC/MS analysis; assay type: cell-based
[15] = target: T1, Olfactory receptor 51E2 (Homo sapiens); assay: Agonist activity at PSGR/OR51E2 in human LNCaP cells assessed as induction of change in extracellular metabolites level by measuring aspartic acid level at 1 mM incubated for 72 hrs by GC/MS analysis; assay type: cell-based
[16] = target: T1, Olfactory receptor 51E2 (Homo sapiens); assay: Agonist activity at PSGR/OR51E2 in human LNCaP cells assessed as induction of change in intracellular metabolites level by measuring glutamic acid level at 1 mM incubated for 72 hrs by GC/MS analysis; assay type: cell-based
[17] = target: T1, Olfactory receptor 51E2 (Homo sapiens); assay: Agonist activity at PSGR/OR51E2 in human LNCaP cells assessed as induction of change in extracellular metabolites level by measuring lactose level at 1 mM incubated for 72 hrs by GC/MS analysis; assay type: cell-based
[18] = target: T1, Olfactory receptor 51E2 (Homo sapiens); assay: Agonist activity at PSGR/OR51E2 in human LNCaP cells assessed as induction of change in intracellular metabolites level by measuring spermine level at 1 mM incubated for 72 hrs by GC/MS analysis; assay type: cell-based
[19] = target: T1, Olfactory receptor 51E2 (Homo sapiens); assay: Agonist activity at PSGR/OR51E2 in human LNCaP cells assessed as induction of change in extracellular metabolites level by measuring spermine level at 1 mM incubated for 72 hrs by GC/MS analysis; assay type: cell-based
[20] = target: T1, Olfactory receptor 51E2 (Homo sapiens); assay: Agonist activity at PSGR/OR51E2 in human LNCaP cells assessed as induction of change in intracellular metabolites level by measuring ornithine level at 1 mM incubated for 72 hrs by GC/MS analysis; assay type: cell-based
[21] = target: T1, Olfactory receptor 51E2 (Homo sapiens); assay: Agonist activity at PSGR/OR51E2 in human LNCaP cells assessed as induction of change in extracellular metabolites level by measuring dehydro-alanine level at 1 mM incubated for 72 hrs by GC/MS analysis; assay type: cell-based
[22] = target: T1, Olfactory receptor 51E2 (Homo sapiens); assay: Agonist activity at PSGR/OR51E2 in human LNCaP cells assessed as induction of change in extracellular metabolites level by measuring threitol/erythritol level at 1 mM incubated for 72 hrs by GC/MS analysis; assay type: cell-based
[23] = target: T1, Olfactory receptor 51E2 (Homo sapiens); assay: Agonist activity at PSGR/OR51E2 in human LNCaP cells assessed as induction of change in intracellular metabolites level by measuring glutamine level at 1 mM incubated for 72 hrs by GC/MS analysis; assay type: cell-based
[24] = target: T1, Olfactory receptor 51E2 (Homo sapiens); assay: Agonist activity at PSGR/OR51E2 in human LNCaP cells assessed as induction of change in intracellular metabolites level by measuring tyramine level at 1 mM incubated for 72 hrs by GC/MS analysis; assay type: cell-based
[25] = target: T1, Olfactory receptor 51E2 (Homo sapiens); assay: Agonist activity at PSGR/OR51E2 in human LNCaP cells assessed as induction of change in extracellular metabolites level by measuring glycine level at 1 mM incubated for 72 hrs by GC/MS analysis; assay type: cell-based
[26] = target: T1, Olfactory receptor 51E2 (Homo sapiens); assay: Agonist activity at PSGR/OR51E2 in human LNCaP cells assessed as induction of change in extracellular metabolites level by measuring guanine level at 1 mM incubated for 72 hrs by GC/MS analysis; assay type: cell-based
[27] = target: T1, Olfactory receptor 51E2 (Homo sapiens); assay: Agonist activity at PSGR/OR51E2 in human LNCaP cells assessed as induction of change in extracellular metabolites level by measuring ornithine level at 1 mM incubated for 72 hrs by GC/MS analysis; assay type: cell-based
[28] = target: T1, Olfactory receptor 51E2 (Homo sapiens); assay: Agonist activity at PSGR/OR51E2 in human LNCaP cells assessed as induction of change in extracellular metabolites level by measuring tyramine level at 1 mM incubated for 72 hrs by GC/MS analysis; assay type: cell-based
[29] = target: T1, Olfactory receptor 51E2 (Homo sapiens); assay: Agonist activity at PSGR/OR51E2 in human LNCaP cells assessed as induction of change in extracellular metabolites level by measuring lactic acid level at 1 mM incubated for 72 hrs by GC/MS analysis; assay type: cell-based
[30] = target: T1, Olfactory receptor 51E2 (Homo sapiens); assay: Agonist activity at PSGR/OR51E2 in human LNCaP cells assessed as induction of change in intracellular metabolites level by measuring aspartic acid level at 1 mM incubated for 72 hrs by GC/MS analysis; assay type: cell-based
[31] = target: T1, Olfactory receptor 51E2 (Homo sapiens); assay: Agonist activity at PSGR/OR51E2 in human LNCaP cells assessed as induction of change in intracellular metabolites level by measuring dehydro-alanine level at 1 mM incubated for 72 hrs by GC/MS analysis; assay type: cell-based

CC1=C(/C=C/C(C)=C/C=C/C(C)=C\C(=O)O)C(C)(C)CCC1
active: growth inhibition (GI) [1]

CCC(=O)O
active: Activity [2] | Activity [3] | Activity [4] | Activity [5] | Activity [6] | Activity [7] | Activity [8] | Activity [9] | Activity [10] | Activity [11] | Activity [12] | Activity [13] | Activity [14] | Activity [15] | Activity [16] | Activity [17] | Activity [18] | Activity [19] | Activity [20] | Activity [21] | Activity [22] | Activity [23] | Activity [24] | Activity [25] | Activity [26] | Activity [27] | Activity [28] | Activity [29] | Activity [30] | Activity [31]
